From paper PMC9027920, “Development of New Thiophene-Containing Triaryl Pyrazoline Derivatives as PI3Kγ Inhibitors” (Molecules, 2022)

How the values were obtained:
PI3Kα = target: T1, PI3Kα (Homo sapiens, UniProt P42336); experiment: competitive fluorescence polarization kinase activity assay, PI3Kα; assay type: biochemical; conditions: fluorescence polarization kinase kit
T1 construct: purchased Perkin–Elmer
Text: (§1) Initially, we directly tested the inhibition potency of the synthesized compounds on PI3K by using competitive fluorescence polarization kinase kits, as mentioned in previous investigations. […] According to the significance and research maturity of the isoforms as referenced, the PI3Kα and PI3Kγ isoforms were preliminarily included here.
(§2) The competitive fluorescence polarization kinase activity assay was used to test the inhibition potency on PI3K, as mentioned in previous investigations. In general, following the instruction of the Kit (Perkin–Elmer, Waltham, MA, USA), the 10 μL scale of PI3K activity reaction was conducted with the substrate diC8-PI(4,5)P2 in a solution containing 2.5 mM MgCl2, 5 mM HEPES, […] and 10 mM DTT at pH 7.0. Into the 10 μL reaction wells with 50 ng enzyme and […], different concentrations of the tested compounds were added, respectively. The mixture was incubated at room temperature for 3 h, and the reactions were then quenched. Afterwards, the phosphoinositide binding protein and the fluorescent dye-labeled phosphoinositide tracer were added in sequence. In the dark environment in 384-well black nonbinding plates (Corning, Corning, NY, USA), the further incubation lasted for 1 h. With appropriate filters, the polarization values of the corresponding dye were recorded to calculate the enzymatic activity of PI3K in this reacting procedure. This assay was universal for evaluating the activity of different PI3K isoforms.

PI3Kγ = target: T2, PI3Kγ (Homo sapiens, UniProt P48736); experiment: competitive fluorescence polarization kinase activity assay, PI3Kγ; assay type: biochemical
T2 construct: purchased Perkin–Elmer
T2 sequence (P48736 whole entry, species assumed): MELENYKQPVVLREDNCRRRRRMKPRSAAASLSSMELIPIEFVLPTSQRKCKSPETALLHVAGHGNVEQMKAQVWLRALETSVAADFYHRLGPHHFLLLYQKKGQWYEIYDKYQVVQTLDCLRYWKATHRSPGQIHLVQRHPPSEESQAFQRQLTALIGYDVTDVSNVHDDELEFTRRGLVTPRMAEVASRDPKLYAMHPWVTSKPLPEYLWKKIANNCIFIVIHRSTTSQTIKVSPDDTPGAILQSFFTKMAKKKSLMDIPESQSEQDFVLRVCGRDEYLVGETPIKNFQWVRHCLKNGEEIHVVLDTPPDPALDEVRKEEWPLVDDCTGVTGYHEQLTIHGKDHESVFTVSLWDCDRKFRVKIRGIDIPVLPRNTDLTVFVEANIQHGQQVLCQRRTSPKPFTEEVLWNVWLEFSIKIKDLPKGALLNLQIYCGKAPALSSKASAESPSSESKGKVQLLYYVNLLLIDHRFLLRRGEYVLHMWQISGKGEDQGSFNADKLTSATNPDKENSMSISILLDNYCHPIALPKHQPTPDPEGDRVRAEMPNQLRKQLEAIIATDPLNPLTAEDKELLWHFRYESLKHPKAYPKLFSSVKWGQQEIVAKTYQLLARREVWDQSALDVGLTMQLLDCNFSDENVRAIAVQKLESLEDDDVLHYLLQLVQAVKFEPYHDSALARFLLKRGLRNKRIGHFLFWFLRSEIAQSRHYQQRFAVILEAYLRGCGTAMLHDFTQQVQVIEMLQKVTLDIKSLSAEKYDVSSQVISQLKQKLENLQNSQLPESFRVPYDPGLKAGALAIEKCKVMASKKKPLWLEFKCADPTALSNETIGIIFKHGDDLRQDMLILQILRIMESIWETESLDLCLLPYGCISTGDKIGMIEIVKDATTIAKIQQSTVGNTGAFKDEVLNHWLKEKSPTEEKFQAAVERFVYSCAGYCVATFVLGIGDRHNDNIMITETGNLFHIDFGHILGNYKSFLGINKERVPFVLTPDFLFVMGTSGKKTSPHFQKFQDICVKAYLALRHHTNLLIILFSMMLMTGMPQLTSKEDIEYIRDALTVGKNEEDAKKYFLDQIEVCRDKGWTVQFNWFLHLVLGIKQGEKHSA
Text: as §1, §2

[1] = cytotoxicity, MTT, L02 cells; assay type: cell-based; conditions: human, L02 cells (human normal hepatocyte line)
Method: (§3) In this section, the anti-proliferation activity of the synthesized compounds 3a–3t was evaluated. Herein, HeLa (human epithelial cervical cancer cell line), HepG2 (human hepatoellular carcinoma cell line) and L02 (human normal hepatocyte line) cells were used. According to the affection on L02 cells, most of the tested compounds were low-toxic. […] Basically, many of the compounds in this series could inhibit the growth of HeLa and HepG2 cells effectively. The anti-proliferation inhibitory activity and the enzymatic inhibition potency indicated the consistent tendencies; the SAR of the observed anti-proliferation activity was also similar to that of the enzymatic inhibition, especially that of PI3Kγ inhibition; thus, the cellular inhibition might be caused by the effect on PI3K. […] Thus, HepG2 cells were selected to conduct further investigations at the protein level.
(§4) In this section, the cells included HeLa (human epithelial cervical cancer cell line), HepG2 (human hepatocellular cancer cell line) and L02 (human normal hepatocyte line) to evaluate the anti-proliferation activity of the synthesized compounds. The cells were cultured in Dulbecco’s modified eagle medium (DMEM, Hyclone) with the addition of 10% fetal bovine serum (FBS, BI), 2 mmol/L L-glutamine, 100 units/mL penicillin-streptomycin (Sigma-Aldrich, Saint Louis, MO, USA), […] (Hyclone, Logan, UT, USA). The environment was 5% CO2 contained atmosphere at 37 °C. The tests of anti-proliferative activity were conducted under a standard method with the typical dye 3-(4,5-dimethylthiazol-2-yl)-2,5-diphenyltetrazolium bromide (MTT) in triplicate. The LX300 Epson Diagnostic micro-plate reader (Nagano, Japan) was used to record the absorbance at 570 nm (OD570).

[2] = system: HeLa (human epithelial cervical cancer cell line) cells; experiment: anti-proliferation assay, MTT, HeLa cells; assay type: cell-based
Method: as §3, §4

[3] = system: HepG2 (human hepatocellular cancer cell line) cells; experiment: anti-proliferation assay, MTT, HepG2 cells; assay type: cell-based; conditions: read-out: GI50 HepG2γ
Method: as §3, §4

[4] = system: PI3K-mediated Akt phosphorylation in HepG2 cells; experiment: Western blot of Akt and p-Akt in HepG2 cells; assay type: cell-based, human; conditions: 24 h, 0, 0.25, 0.50, 1.00 μM, with increasing concentration
Method: For the evaluation of PI3Kγ activity, the downstream signal of PI3Kγ should be checked. Commonly, in the PI3K-Akt-mTOR pathway, the activation of PI3K mediated the phosphorylation of Akt and then triggered the following biological events. Herein, Western blot was conducted to visualize the expression levels of Akt and p-Akt (phosphorylated Akt) in HepG2 cells after incubation with various concentrations of the top hit 3s (Figure 2). GAPDH was used as the internal reference to guarantee cell status. […] This meant that compound 3s has the potential to cause dose-dependent blocking on the PI3K-mediated Akt phosphorylation.
According to the results of the anti-proliferation assay, HepG2 cells were chosen to be incubated with the compound 3s for 24 h. The cells were then trypsinized and collected. Afterwards, the extracting of the total proteins was conducted with a 1 × RIPA lysis buffer (1% NP-40, 50 mM Tris-HCl, 150 mM NaCl, 0.25% deoxycholic acid, 1 mM EDTA containing protease inhibitors PMSF, pH 7.4,) (Amresco, Solon, OH, USA). […]
Figure 2 (A) The expression levels of Akt, phosphorylated Akt (p-Akt) and GAPDH in HepG2 cells incubated with various concentrations of compound 3s (0, 0.25, 0.50, 1.00 μM); (B) Quantitation analysis of the p-Akt level. Data were expressed as Mean ± SD (n = 3). * p < 0.05, ** p < 0.01 and *** p < 0.005 vs. the control.

HCT-116 cells = system: HCT-116 cells; parameters: method as in doi:10.1134/S1068162020030061; conditions: cited from earlier work
CACO-2 cells = system: CACO-2 cells; parameters: method as in doi:10.1134/S1068162020030061; conditions: cited from earlier work
BHK cells = system: BHK cells; parameters: method as in doi:10.1134/S1068162020030061; conditions: cited from earlier work

T1 sequence (P42336 whole entry, species assumed): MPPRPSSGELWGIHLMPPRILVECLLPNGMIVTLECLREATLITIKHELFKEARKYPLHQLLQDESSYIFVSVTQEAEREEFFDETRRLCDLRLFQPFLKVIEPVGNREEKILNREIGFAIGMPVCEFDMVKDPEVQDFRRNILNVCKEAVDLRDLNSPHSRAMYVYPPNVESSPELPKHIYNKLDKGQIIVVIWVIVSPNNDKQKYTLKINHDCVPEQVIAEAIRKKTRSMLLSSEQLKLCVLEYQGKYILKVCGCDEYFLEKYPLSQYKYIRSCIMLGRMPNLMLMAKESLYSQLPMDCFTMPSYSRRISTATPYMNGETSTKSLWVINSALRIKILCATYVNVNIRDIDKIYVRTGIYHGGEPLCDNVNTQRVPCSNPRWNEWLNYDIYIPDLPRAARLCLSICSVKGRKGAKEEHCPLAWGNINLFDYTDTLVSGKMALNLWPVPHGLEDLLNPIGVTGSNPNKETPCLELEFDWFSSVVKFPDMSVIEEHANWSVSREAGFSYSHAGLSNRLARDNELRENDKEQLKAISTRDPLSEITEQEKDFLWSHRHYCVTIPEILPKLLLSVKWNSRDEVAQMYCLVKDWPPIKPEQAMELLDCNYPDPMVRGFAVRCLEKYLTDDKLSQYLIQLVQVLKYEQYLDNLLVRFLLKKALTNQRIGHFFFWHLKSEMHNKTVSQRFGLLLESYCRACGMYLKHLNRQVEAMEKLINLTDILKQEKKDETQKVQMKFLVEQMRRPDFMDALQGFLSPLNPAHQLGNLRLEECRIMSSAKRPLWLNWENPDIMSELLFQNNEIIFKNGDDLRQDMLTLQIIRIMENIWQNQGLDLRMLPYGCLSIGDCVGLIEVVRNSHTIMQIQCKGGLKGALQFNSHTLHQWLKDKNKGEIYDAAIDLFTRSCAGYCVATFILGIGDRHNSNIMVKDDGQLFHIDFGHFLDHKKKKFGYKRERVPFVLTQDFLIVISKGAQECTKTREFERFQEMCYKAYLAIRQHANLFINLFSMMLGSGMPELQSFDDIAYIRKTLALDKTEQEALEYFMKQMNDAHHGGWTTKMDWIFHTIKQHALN
T1 sequence (P27986 whole entry partner, species assumed): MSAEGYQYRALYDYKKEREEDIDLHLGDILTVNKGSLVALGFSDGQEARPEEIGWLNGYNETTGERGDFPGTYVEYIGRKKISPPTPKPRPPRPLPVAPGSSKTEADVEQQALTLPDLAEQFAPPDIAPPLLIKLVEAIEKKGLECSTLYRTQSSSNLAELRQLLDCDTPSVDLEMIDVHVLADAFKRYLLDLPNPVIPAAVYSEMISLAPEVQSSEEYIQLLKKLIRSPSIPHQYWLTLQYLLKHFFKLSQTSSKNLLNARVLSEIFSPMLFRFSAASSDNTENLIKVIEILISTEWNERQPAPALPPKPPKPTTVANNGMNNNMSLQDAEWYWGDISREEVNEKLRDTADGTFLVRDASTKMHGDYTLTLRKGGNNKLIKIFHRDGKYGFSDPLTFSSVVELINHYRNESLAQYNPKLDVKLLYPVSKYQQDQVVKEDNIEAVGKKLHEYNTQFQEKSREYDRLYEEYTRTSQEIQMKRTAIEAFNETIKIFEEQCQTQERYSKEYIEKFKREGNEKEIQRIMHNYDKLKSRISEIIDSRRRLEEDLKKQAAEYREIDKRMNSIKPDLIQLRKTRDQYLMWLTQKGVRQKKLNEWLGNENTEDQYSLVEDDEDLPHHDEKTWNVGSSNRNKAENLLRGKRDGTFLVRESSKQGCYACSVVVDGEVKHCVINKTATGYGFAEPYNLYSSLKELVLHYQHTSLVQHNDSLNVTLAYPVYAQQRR

IC50 (PI3Kα)	IC50 (PI3Kγ; fluorescence polarization kinase kit)	selectivity index (PI3Kγ; ratio of the IC50 values for PI3Kα and PI3Kγ)	GI50 [2]	GI50 [3]	melting point	Compound	CC50 [1]	Akt level [4]	p-Akt level [4]	anti-tumor activity (HCT-116 cells)	anti-tumor activity (CACO-2 cells)	cytotoxicity (BHK cells)
42.6 ± 2.9 µM	0.066 ± 0.005 µM	645	13.7 ± 1.1 µM	12.9 ± 1.3 µM	138 to 140 °C	COc1ccc(C(=O)N2N=C(c3ccc4c(c3)OCO4)CC2c2cccs2)cc1OC (stereo not drawn) [3s, (3-(Benzo[d][1,3]dioxol-5-yl)-5-(thiophen-2-yl)-4,5-dihydro-1H-pyrazol-1-yl)(3,4-dimethoxyphenyl)methanone]	181 ± 9 µM	almost remained unchanged	obvious decrease			
						CCOC(=O)c1sc(N2N=C(c3cccs3)CC2c2ccccc2)nc1C (stereo not drawn) [ethyl-4-methyl-2-(5-phenyl-3-(thiophen-2-yl)-4,5-dihydropyrazol-1-yl)thiazole-5-carboxylate]				potent anti-tumor activity	potent anti-tumor activity	no cytotoxicity
